# Laboratory results: patent US20260042764A1, “COMPOSITIONS AND METHODS FOR INHIBITION OF KRAS” (TheRas, Inc., priority 2022, published 2026)
# Columns and labels:
# [1] = target: T1, Avi-KRAS G12R (1-169) GppNHp/RAF1 RBD-3xFLAG (52-151) (Homo sapiens, UniProt P01116, G12R); assay: Raf1-KRAS G12R-GppNHP disruption HTRF assay (Biological Example 1); format: binding
# T1 construct: Avi-KRAS G12R (1-169)
# In short: (§1)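 Read-out is HTRF signal of the KRAS–RAF1 RBD complex, reported as percentage of activity relative to DMSO (100%). Protein mix and detection reagents each incubated 1 h at room temperature with 700 rpm shaking. Buffer: 50 mM Tris pH 7.5, 100 mM NaCl, 5 mM MgCl2, 0.1% BSA, 0.01% Tween, 10% DMSO.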
# [2] = target: T2, Avi-KRAS G12V (1-169) GppNHp/RAF1 RBD-3xFLAG (52-151) (Homo sapiens, UniProt P01116, G12V); assay: Raf1-KRAS G12V-GppNHP disruption HTRF assay (Biological Example 1); format: binding
# T2 construct: Avi-KRAS G12V (1-169)
# T2 sequence (P01116 1-169 isoform P01116-2 G12V): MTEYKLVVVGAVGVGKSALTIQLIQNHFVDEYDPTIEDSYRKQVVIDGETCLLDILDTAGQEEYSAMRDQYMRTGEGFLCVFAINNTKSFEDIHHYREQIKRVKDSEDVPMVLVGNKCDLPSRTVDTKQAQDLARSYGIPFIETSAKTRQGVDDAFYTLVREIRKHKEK
# In short: as §1
# [3] = target: T3, Avi-KRAS WT (1-169) GppNHp/RAF1 RBD-3xFLAG (52-151) (Homo sapiens, UniProt P01116); assay: Raf1-KRAS WT-GppNHP disruption HTRF assay (Biological Example 1); format: binding
# T3 construct: Avi-KRAS WT (1-169)
# T3 sequence (P01116 1-169 isoform P01116-2): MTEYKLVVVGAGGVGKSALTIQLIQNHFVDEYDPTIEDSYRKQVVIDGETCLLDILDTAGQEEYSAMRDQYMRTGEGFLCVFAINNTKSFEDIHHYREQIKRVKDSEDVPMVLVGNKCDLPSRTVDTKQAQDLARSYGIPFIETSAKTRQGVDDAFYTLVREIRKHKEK
# In short: as §1
# [4] = target: T4, Avi-KRAS G12D (2-169) GTP/RAF1 RBD-3xFLAG (51-131) (Homo sapiens, UniProt P01116, G12D); assay: Raf1-KRAS G12D-GTP disruption HTRF assay (Biological Example 3); format: binding; conditions: KRAS G12D, GTP-loaded
# T4 construct: Avi-KRAS G12D (2-169)
# T4 sequence (P01116 2-169 isoform P01116-2 G12D): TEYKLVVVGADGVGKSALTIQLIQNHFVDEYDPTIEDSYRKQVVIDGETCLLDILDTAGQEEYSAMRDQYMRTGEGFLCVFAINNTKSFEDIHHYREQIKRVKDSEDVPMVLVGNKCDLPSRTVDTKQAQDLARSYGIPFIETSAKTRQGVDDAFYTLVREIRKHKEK
# In short: (§2)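 50 nM Avi-KRAS (2-169) GTP/RAF1 RBD complex; 75 nM RBD-Avi; pH 7.5 Tris buffer, 10% DMSO; cpd 30 μM top, 3x, 10 pts; 1 h RT, 700 rpm; HTRF, % of DMSO.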
# [5] = target: T5, Avi-KRAS G12V (2-169) GTP/RAF1 RBD-3xFLAG (51-131) (Homo sapiens, UniProt P01116, G12V); assay: Raf1-KRAS G12V-GTP disruption HTRF assay (Biological Example 3); format: binding; conditions: KRAS G12V, GTP-loaded
# T5 construct: Avi-KRAS G12V (2-169)
# T5 sequence (P01116 2-169 isoform P01116-2 G12V): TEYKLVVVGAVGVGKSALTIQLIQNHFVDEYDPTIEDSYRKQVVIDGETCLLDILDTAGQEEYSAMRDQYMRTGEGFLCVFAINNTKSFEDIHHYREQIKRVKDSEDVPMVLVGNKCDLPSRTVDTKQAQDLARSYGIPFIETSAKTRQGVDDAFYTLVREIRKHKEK
# In short: as §2
# SW620 cells (KRAS G12V) = assay: Cell-based pERK HTRF assay in SW620 cell (Biological Example 4)
# In short: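 SW620 seeded in RPMI/10% FBS, next day dosed 4 h (top 1 μM, half-log, 9 pts, 0.25% DMSO). Lysed, pERK by d2/Eu cryptate HTRF, 4–24 h RT, 615 nm read.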
# [6] = KRAS G12R, GppNHp-loaded, Table 11
# [7] = KRAS G12V, GppNHp-loaded, Table 11
# [8] = KRAS WT, GppNHp-loaded, Table 11
# [9] = Homo sapiens, SW-620, SW620 (KRAS G12V) cells
# [10] = Homo sapiens, SW-620, SW620 (KRAS G12V) cells, pERK HTRF
# [11] = KRAS G12R, GppNHp-loaded, class symbols
# [12] = KRAS G12V, GppNHp-loaded, class symbols
# [13] = KRAS WT, GppNHp-loaded, class symbols
# [14] = Homo sapiens, SW-620, SW620 (KRAS G12V) cells, pERK HTRF, class symbols
# T1 sequence (P01116 1-169 isoform P01116-2 G12R): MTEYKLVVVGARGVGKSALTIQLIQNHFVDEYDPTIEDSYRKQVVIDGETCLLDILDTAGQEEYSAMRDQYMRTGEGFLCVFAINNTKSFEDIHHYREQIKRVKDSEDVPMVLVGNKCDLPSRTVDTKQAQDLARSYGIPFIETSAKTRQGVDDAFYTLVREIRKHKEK
Compound,"IC50 [1, 6] [nM]","IC50 [2, 7] [nM]","IC50 [3, 8] [nM]",IC50 [4] [nM],IC50 [5] [nM],IC50 (SW620 cells (KRAS G12V); [9]) [nM],IC50 (SW620 cells (KRAS G12V); [10]) [nM],IC50 ([1]; KRAS G12R-GppNHp/RAF1 RBD HTRF) [nM],IC50 ([2]; KRAS G12V-GppNHp/RAF1 RBD HTRF) [nM],IC50 ([3]; KRAS WT-GppNHp/RAF1 RBD HTRF) [nM],"IC50 (SW620 cells (KRAS G12V); SW620 (KRAS G12V) cells, pERK HTRF) [nM]","IC50 [1, 11] [nM]","IC50 [2, 12] [nM]","IC50 [3, 13] [nM]",IC50 (SW620 cells (KRAS G12V); [14]) [nM],IC50 (SW620 cells (KRAS G12V); SW620 (KRAS G12V) cells) [nM]
N#Cc1c(N)sc2c(F)ccc(-c3c(C(F)(F)F)cc4c(N5CCNS(=O)(=O)CC5)nc(OC[C@@]56CCCN5C[C@H](F)C6)nc4c3F)c12 [Compound 245],< 100,100 to 1000,< 100,100 to 1000,100 to 1000,< 100,< 100,,,,,,,,,
CCN(c1nc(OC[C@@]23CCCN2C[C@H](F)C3)nc2c(F)c(-c3ccc(F)c4sc(N)c(C#N)c34)c(C(F)(F)F)cc12)[C@H]1CCN(C(=O)C2CC2)C1 [Compound 331],,,,100 to 1000,100 to 1000,< 100,< 100,< 100,100 to 1000,100 to 1000,,,,,,
"N#Cc1c(N)sc2c(F)ccc(-c3c(C(F)(F)F)cc4c(N5CCOCC5)nc(OC[C@@]56CCCN5C[C@H](F)C6)nc4c3F)c12 (single isomer, unassigned) [Compound 198]",100 to 1000,100 to 1000,100 to 1000,100 to 1000,100 to 1000,< 100,,,,,< 100,,,,,
CCN(c1nc(OC[C@@]23CCCN2C[C@H](F)C3)nc2c(F)c(-c3ccc(F)c4sc(N)c(C#N)c34)c(C(F)(F)F)cc12)[C@H]1CCN(C(C)=O)C1 [Compound 262],< 100,< 100,< 100,≤ 100,100 to 1000,< 100,< 100,,,,,,,,,
"N#Cc1c(N)sc2c(F)ccc(-c3c(C(F)(F)F)cc4c(N5C[C@H]6C[C@@H]5CO6)nc(OC[C@@]56CCCN5C[C@H](F)C6)nc4c3F)c12 [Compound 253, 2-amino-7-fluoro-4-[8-fluoro-2-[[(2R,8S)-2-fluoro-1,2,3,5,6,7-hexahydropyrrolizin-8-yl]methoxy]-4-[(1R,4R)-2-oxa-5-azabicyclo[2.2.1]heptan-5-yl]-6-(trifluoromethyl)quinazolin-7-yl]benzothiophene-3-carbonitrile]",100 to 1000,100 to 1000,100 to 1000,100 to 1000,1000 to 10000,< 100,100 to 1000,,,,,,,,,
CCC(=O)N1CC[C@@H](N(CC)c2nc(OC[C@@]34CCCN3C[C@H](F)C4)nc3c(F)c(-c4ccc(F)c5sc(N)c(C#N)c45)c(C(F)(F)F)cc23)C1 [Compound 327],,,,100 to 1000,100 to 1000,< 100,< 100,100 to 1000,100 to 1000,100 to 1000,,,,,,

# Other lines, results leading:
"IC50 [1, 6] [nM]","IC50 [2, 7] [nM]","IC50 [3, 8] [nM]",IC50 [4] [nM],IC50 [5] [nM],IC50 (SW620 cells (KRAS G12V); [9]) [nM],IC50 (SW620 cells (KRAS G12V); [10]) [nM],IC50 ([1]; KRAS G12R-GppNHp/RAF1 RBD HTRF) [nM],IC50 ([2]; KRAS G12V-GppNHp/RAF1 RBD HTRF) [nM],IC50 ([3]; KRAS WT-GppNHp/RAF1 RBD HTRF) [nM],"IC50 (SW620 cells (KRAS G12V); SW620 (KRAS G12V) cells, pERK HTRF) [nM]","IC50 [1, 11] [nM]","IC50 [2, 12] [nM]","IC50 [3, 13] [nM]",IC50 (SW620 cells (KRAS G12V); [14]) [nM],IC50 (SW620 cells (KRAS G12V); SW620 (KRAS G12V) cells) [nM],Compound
,,,100 to 1000,100 to 1000,< 100,,,,,,100 to 1000,100 to 1000,100 to 1000,< 100,,"C[C@H]1Cn2nc(C(=O)N(C)C)cc2CN1c1nc(OC[C@@]23CCCN2C[C@H](F)C3)nc2c(F)c(-c3ccc(F)c4sc(N)c(C#N)c34)c(C(F)(F)F)cc12 (atropisomer, axis not shown) [Compound 610]"
,,,100 to 1000,100 to 1000,< 100,,,,,,< 100,< 100,< 100,< 100,,"CCN(c1nc(OC[C@@]23CCCN2C[C@H](F)C3)nc2c(F)c(-c3ccc(F)c4sc(N)c(C#N)c34)c(C(F)(F)F)cc12)[C@H]1CC(=O)N(C)C1 (atropisomer, axis not shown) [Compound 614]"
,,,≤ 100,≤ 100,< 100,,,,,,100 to 1000,100 to 1000,100 to 1000,< 100,,"CCN(c1nc(OC[C@@]23CCCN2C[C@H](F)C3)nc2c(F)c(-c3ccc(F)c4sc(N)c(C#N)c34)c(C(F)(F)F)cc12)[C@H]1CC(=O)N(CC(F)F)C1 (atropisomer, axis not shown) [Compound 613]"
,,,100 to 1000,100 to 1000,,,,,,,< 100,< 100,< 100,< 100,< 100,"Cc1c(C(=O)N(C)C)nn2c1CN(c1nc(OC[C@@]34CCCN3C[C@H](F)C4)nc3c(F)c(-c4ccc(F)c5sc(N)c(C#N)c45)c(C(F)(F)F)cc13)CC2 (atropisomer, axis not shown; (aS)) [Compound 590, 5-((S)-7-(2-amino-3-cyano-7-fluorobenzo[b]thiophen-4-yl)-8-fluoro-2-(((2R,7aS)-2-fluorotetrahydro-1H-pyrrolizin-7a(5H)-yl)methoxy)-6-(trifluoromethyl)quinazolin-4-yl)-N,N,3-trimethyl-4,5,6,7-tetrahydropyrazolo[1,5-a]pyrazine-2-carboxamide]"
